Results taken from PMC5772984 (International journal for parasitology, 2017).
Like-named read-outs stand apart in the source and are kept apart here.

Experiments:
[1] = tested on: Cryptosporidium parvum; conditions: oral dosing; ref Hulverson et al., 2017; cited from earlier work
[2] = target: UGA1 N-luciferase expressing C. parvum; conditions: read-out: EC50 in vitro against C. parvum; ref Hulverson et al., 2017; cited from earlier work
[3] = tested on: CRL-8155 cells; conditions: ref Hulverson et al., 2017; cited from earlier work
[4] = tested on: HepG2 cells; conditions: ref Hulverson et al., 2017; cited from earlier work
[5] = tested on: UGA1 N-luciferase expressing C. parvum; test: Nluc expressing C. parvum in vitro growth inhibition in infected HCT-8 cells; type: cell-based; conditions: Cryptosporidium parvum
[6] = tested on: Cryptosporidium; conditions: 1–5 year old malnourished children; ref Amadi et al., 2002; cited from earlier work
[7] = tested on: C. parvum; conditions: Cryptosporidium parvum
[8] = tested on: Tufts University TU502 C. hominis; conditions: Cryptosporidium hominis, HCT-8

Structure (SMILES): CCOc1ccc2cc(-c3nn(CC4CCNCC4)c4ncnc(N)c34)ccc2n1 [BKI 1318]
- Efficacy when orally dosed in vivo in mice [1]: lacked efficacy
- EC50 [2]: 3.2 µM
- In vitro cytotoxicity [3]: no toxicity
- In vitro cytotoxicity [4]: no toxicity

Structure (SMILES): CC(=O)Oc1ccccc1C(=O)Nc1ncc([N+](=O)[O-])s1 [Nitazoxanide, nitazoxanide]
- EC50 [5]: 3.1 µM
- Effectiveness in children with cryptosporidiosis [6]: approximately 30%
- EC50 ([7]; HCT-8, Bunch Grass Farm C. parvum, high-content imaging): 1.9 µM
- EC50 ([7]; HCT-8, University of Arizona C. parvum): 1.68 µM
- EC50 [8]: 2.78 µM
